Experimental data from patent publication US6358885B1, “Substituted phenylheterocyclic herbicides” (Mississippi State University, priority 1992, dated 2002).

Experiments:
sugar beet = assay: Test C preemergence/postemergence greenhouse plant response rating 0 to 100; format: in vivo, Beta vulgaris; settings: for Plant response rating, Sugar beet: 125 g/ha, 0 to 100 scale
Outline: (§1)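 Compounds in non-phytotoxic solvent applied preemergence to sandy loam one day after planting, postemergence at the 1–4 leaf stage, or to ~2.5 cm floodwater over silt loam.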

barnyardgrass = assay: Test B preemergence/postemergence greenhouse plant response rating 0 to 10; format: in vivo, Echinochloa crus-galli; settings: 0 to 10 scale
Outline: (§2)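 Postemergence treatment of plants two to eighteen cm tall ran alongside preemergence treatment of planted seed, each using compound in a non-phytotoxic solvent.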

wild oat = assay: Test C preemergence/postemergence greenhouse plant response rating 0 to 100; format: in vivo, Avena fatua; settings: for Plant response rating, Wild oat: 125 g/ha, 0 to 100 scale
Outline: as §1

bedstraw = assay: as above; format: in vivo, Galium aparine; settings: for Plant response rating, Bedstraw: 125 g/ha, 0 to 100 scale
Outline: as §1

umbrella sedge = assay: Test C flood test plant response rating 0 to 100; format: in vivo, Cyperus difformis
Outline: as §1

chickweed = assay: Test B preemergence/postemergence greenhouse plant response rating 0 to 10; format: in vivo, Stellaria media; settings: 0 to 10 scale
Outline: as §2

rape = assay: as above; format: in vivo, Brassica napus; settings: 0 to 10 scale
Outline: as §2

downy brome = assay: Test C preemergence/postemergence greenhouse plant response rating 0 to 100; format: in vivo, Bromus tectorum; settings: for Plant response rating Downy Brome: 125 g/ha, 0 to 100 scale
Outline: as §1

wild buckwheat = assay: Test B preemergence/postemergence greenhouse plant response rating 0 to 10; format: in vivo, Polygonum convolvulus; settings: 0 to 10 scale
Outline: as §2

ryegrass = assay: Test C preemergence/postemergence greenhouse plant response rating 0 to 100; format: in vivo, Lolium multiflorum; settings: for Plant response rating Ryegrass: 125 g/ha, 0 to 100 scale
Outline: as §1

corn = assay: as above; format: in vivo, Zea mays; settings: for Plant response rating, Corn: 125 g/ha, 0 to 100 scale
Outline: as §1

crabgrass = assay: as above; format: in vivo, Digitaria sanguinalis; settings: for Plant response rating, Crabgrass: 125 g/ha, 0 to 100 scale
Outline: as §1

With `Fc1cc(Cl)ccc1-c1nn2c(c1Br)CCCC2` [Compound 52] the “Plant response rating, Sugar beet” value (sugar beet; POSTEMERGENCE) was 100, the “Plant response rating (0 to 100), Sugar beet” value (sugar beet; POSTEMERGENCE, Rate 2 g/ha) was 70 and the “Plant response rating, Sugar beet” value (sugar beet; PREEMERGENCE) was 100. For the same compound, the “Plant response rating (0 to 100), Sugar beet” value (sugar beet; PREEMERGENCE, Rate 2 g/ha) was 0, the “Plant response rating (0 to 100), Sugar beet” value (sugar beet; Rate 8 g/ha, POSTEMERGENCE) was 70 and the “Plant response rating (0 to 100), Sugar beet” value (sugar beet; Rate 8 g/ha, PREEMERGENCE) was 0. The “Plant response rating (0 to 100), Sugar beet” value (sugar beet; Rate 31 g/ha, POSTEMERGENCE) was 100, the “Plant response rating (0 to 100), Sugar beet” value (sugar beet; Rate 31 g/ha, PREEMERGENCE) was 70 and the “Plant response rating, Barnyardgrass” value (barnyardgrass; POSTEMERGENCE, Rate 50 g/ha) was 9. The “Plant response rating, Barnyardgrass” value (barnyardgrass; POSTEMERGENCE, Rate 200 g/ha) was 9, the “Plant response rating, Barnyardgrass” value (barnyardgrass; PREEMERGENCE, Rate 50 g/ha) was 5 and the “Plant response rating, Barnyardgrass” value (barnyardgrass; Rate 200 g/ha, PREEMERGENCE) was 9. The “Plant response rating, Wild oat” value (wild oat; POSTEMERGENCE) was 60, the “Plant response rating (0 to 100), Wild oat” value (wild oat; POSTEMERGENCE, Rate 2 g/ha) was 10 and the “Plant response rating, Wild oat” value (wild oat; PREEMERGENCE) was 20. For the same compound, the “Plant response rating (0 to 100), Wild oat” value (wild oat; PREEMERGENCE, Rate 2 g/ha) was 0, the “Plant response rating (0 to 100), Wild oat” value (wild oat; Rate 8 g/ha, POSTEMERGENCE) was 20 and the “Plant response rating (0 to 100), Wild oat” value (wild oat; Rate 8 g/ha, PREEMERGENCE) was 0. The “Plant response rating (0 to 100), Wild oat” value (wild oat; Rate 31 g/ha, POSTEMERGENCE) was 30, the “Plant response rating (0 to 100), Wild oat” value (wild oat; Rate 31 g/ha, PREEMERGENCE) was 0 and the “Plant response rating, Bedstraw” value (bedstraw; POSTEMERGENCE) was 100. The “Plant response rating (0 to 100), Bedstraw” value (bedstraw; POSTEMERGENCE, Rate 2 g/ha) was 50, the “Plant response rating, Bedstraw” value (bedstraw; PREEMERGENCE) was 80 and the “Plant response rating (0 to 100), Bedstraw” value (bedstraw; PREEMERGENCE, Rate 2 g/ha) was 0. For the same compound, the “Plant response rating (0 to 100), Bedstraw” value (bedstraw; Rate 8 g/ha, POSTEMERGENCE) was 70, the “Plant response rating (0 to 100), Bedstraw” value (bedstraw; Rate 8 g/ha, PREEMERGENCE) was 0 and the “Plant response rating (0 to 100), Bedstraw” value (bedstraw; Rate 31 g/ha, POSTEMERGENCE) was 70. The “Plant response rating (0 to 100), Bedstraw” value (bedstraw; Rate 31 g/ha, PREEMERGENCE) was 10, the “Plant response rating (0 to 100), Umbrella sedge” value (umbrella sedge; POSTEMERGENCE section, flood test, Rate 2 g/ha) was 10 and the “Plant response rating (0 to 100), Umbrella sedge” value (umbrella sedge; Rate 8 g/ha, under POSTEMERGENCE head (flood test species)) was 20. For the same compound, the “Plant response rating (0 to 100), Umbrella sedge” value (umbrella sedge; Rate 31 g/ha, under POSTEMERGENCE head (flood test species)) was 25, the “Plant response rating Umbrella sedge” value (umbrella sedge; flood test species listed under POSTEMERGENCE, 125 g/ha, 0 to 100 scale) was 80 and the “Plant response rating, Chickweed” value (chickweed; POSTEMERGENCE, Rate 50 g/ha) was 5. For the same compound, the “Plant response rating, Chickweed” value (chickweed; POSTEMERGENCE, Rate 200 g/ha) was 7, the “Plant response rating, Chickweed” value (chickweed; PREEMERGENCE, Rate 50 g/ha) was 9 and the “Plant response rating, Chickweed” value (chickweed; Rate 200 g/ha, PREEMERGENCE) was 9. For the same compound, the “Plant response rating, Rape” value (rape; POSTEMERGENCE, Rate 50 g/ha) was 8, the “Plant response rating, Rape” value (rape; PREEMERGENCE, Rate 50 g/ha) was 1 and the “Plant response rating, Rape” value (rape; Rate 200 g/ha, POSTEMERGENCE) was 10. For the same compound, the “Plant response rating, Rape” value (rape; Rate 200 g/ha, PREEMERGENCE) was 9, the “Plant response rating Downy Brome” value (downy brome; POSTEMERGENCE) was 90 and the “Plant response rating (0 to 100), Downy Brome” value (downy brome; POSTEMERGENCE, Rate 2 g/ha) was 10. The “Plant response rating Downy Brome” value (downy brome; PREEMERGENCE) was 50, the “Plant response rating (0 to 100), Downy Brome” value (downy brome; PREEMERGENCE, Rate 2 g/ha) was 0 and the “Plant response rating (0 to 100), Downy Brome” value (downy brome; Rate 8 g/ha, POSTEMERGENCE) was 20. The “Plant response rating (0 to 100), Downy Brome” value (downy brome; Rate 8 g/ha, PREEMERGENCE) was 0, the “Plant response rating (0 to 100), Downy Brome” value (downy brome; Rate 31 g/ha, POSTEMERGENCE) was 50 and the “Plant response rating (0 to 100), Downy Brome” value (downy brome; Rate 31 g/ha, PREEMERGENCE) was 0. The “Plant response rating, Wild buckwheat” value (wild buckwheat; POSTEMERGENCE, Rate 50 g/ha) was 10, the “Plant response rating, Wild buckwheat” value (wild buckwheat; PREEMERGENCE, Rate 50 g/ha) was 7 and the “Plant response rating, Wild buckwheat” value (wild buckwheat; Rate 200 g/ha, POSTEMERGENCE) was 10. For the same compound, the “Plant response rating, Wild buckwheat” value (wild buckwheat; Rate 200 g/ha, PREEMERGENCE) was 10, the “Plant response rating Ryegrass” value (ryegrass; POSTEMERGENCE) was 60 and the “Plant response rating (0 to 100), Ryegrass” value (ryegrass; POSTEMERGENCE, Rate 2 g/ha) was 10. For the same compound, the “Plant response rating Ryegrass” value (ryegrass; PREEMERGENCE) was 50, the “Plant response rating (0 to 100), Ryegrass” value (ryegrass; PREEMERGENCE, Rate 2 g/ha) was 0 and the “Plant response rating (0 to 100), Ryegrass” value (ryegrass; Rate 8 g/ha, POSTEMERGENCE) was 20. The “Plant response rating (0 to 100), Ryegrass” value (ryegrass; Rate 8 g/ha, PREEMERGENCE) was 0, the “Plant response rating (0 to 100), Ryegrass” value (ryegrass; Rate 31 g/ha, POSTEMERGENCE) was 40 and the “Plant response rating (0 to 100), Ryegrass” value (ryegrass; Rate 31 g/ha, PREEMERGENCE) was 10. The “Plant response rating, Corn” value (corn; POSTEMERGENCE) was 50, the “Plant response rating (0 to 100), Corn” value (corn; POSTEMERGENCE, Rate 2 g/ha) was 20 and the “Plant response rating, Corn” value (corn; PREEMERGENCE) was 0. For the same compound, the “Plant response rating (0 to 100), Corn” value (corn; PREEMERGENCE, Rate 2 g/ha) was 0, the “Plant response rating (0 to 100), Corn” value (corn; Rate 8 g/ha, POSTEMERGENCE) was 30 and the “Plant response rating (0 to 100), Corn” value (corn; Rate 8 g/ha, PREEMERGENCE) was 0. For the same compound, the “Plant response rating (0 to 100), Corn” value (corn; Rate 31 g/ha, POSTEMERGENCE) was 40, the “Plant response rating (0 to 100), Corn” value (corn; Rate 31 g/ha, PREEMERGENCE) was 0 and the “Plant response rating, Crabgrass” value (crabgrass; POSTEMERGENCE) was 70. The “Plant response rating (0 to 100), Crabgrass” value (crabgrass; POSTEMERGENCE, Rate 2 g/ha) was 10, the “Plant response rating, Crabgrass” value (crabgrass; PREEMERGENCE) was 80 and the “Plant response rating (0 to 100), Crabgrass” value (crabgrass; PREEMERGENCE, Rate 2 g/ha) was 0. The “Plant response rating (0 to 100), Crabgrass” value (crabgrass; Rate 8 g/ha, POSTEMERGENCE) was 30, the “Plant response rating (0 to 100), Crabgrass” value (crabgrass; Rate 8 g/ha, PREEMERGENCE) was 0 and the “Plant response rating (0 to 100), Crabgrass” value (crabgrass; Rate 31 g/ha, POSTEMERGENCE) was 40. For the same compound, the “Plant response rating (0 to 100), Crabgrass” value (crabgrass; Rate 31 g/ha, PREEMERGENCE) was 10.
